ChEMBL document CHEMBL3286108, “Novel arylsulfonamide derivatives with 5-HT₆/5-HT₇ receptor antagonism targeting behavioral and psychological symptoms of dementia” (J Med Chem, 2014)

Columns and labels:
[1] = target: 5-hydroxytryptamine receptor 7 (Homo sapiens, UniProt P34969); assay: biochemical; assay type: cell-based, CHO-K1
[2] = target: 5-hydroxytryptamine receptor 2A (Homo sapiens, UniProt P28223); assay: biochemical; assay type: cell-based, CHO-K1
[3] = target: hERG (KCNH2) potassium channel (Homo sapiens, UniProt Q12809); assay: in vitro; details: CHO cells expressing human cloned ERG
[4] = target: 5-hydroxytryptamine receptor 6 (Homo sapiens, UniProt P50406); assay: biochemical
D(2) dopamine receptor = D(2) dopamine receptor (Homo sapiens, UniProt P14416); assay: biochemical
[5] = target: T1, Muscarinic acetylcholine receptor M1 (Homo sapiens) (UniProt P11229); assay: Displacement of [3H]pirenzepine from human recombinant M1 receptor expressed in CHO cells at 1 uM; assay type: cell-based
T1 sequence (whole entry): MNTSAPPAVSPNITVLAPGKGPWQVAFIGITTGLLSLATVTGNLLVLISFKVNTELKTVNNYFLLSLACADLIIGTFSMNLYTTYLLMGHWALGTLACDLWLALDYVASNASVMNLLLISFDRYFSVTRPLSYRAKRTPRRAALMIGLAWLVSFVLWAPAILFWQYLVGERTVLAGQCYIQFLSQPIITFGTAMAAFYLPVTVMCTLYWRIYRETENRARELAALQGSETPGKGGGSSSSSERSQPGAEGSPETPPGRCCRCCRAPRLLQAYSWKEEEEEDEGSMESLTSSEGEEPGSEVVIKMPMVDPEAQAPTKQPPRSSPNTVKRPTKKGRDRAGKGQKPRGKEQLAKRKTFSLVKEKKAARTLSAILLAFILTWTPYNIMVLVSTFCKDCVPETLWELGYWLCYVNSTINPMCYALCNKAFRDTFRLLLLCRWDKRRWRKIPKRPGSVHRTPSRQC

hERG (KCNH2) potassium channel, sequence (Q12809 whole entry): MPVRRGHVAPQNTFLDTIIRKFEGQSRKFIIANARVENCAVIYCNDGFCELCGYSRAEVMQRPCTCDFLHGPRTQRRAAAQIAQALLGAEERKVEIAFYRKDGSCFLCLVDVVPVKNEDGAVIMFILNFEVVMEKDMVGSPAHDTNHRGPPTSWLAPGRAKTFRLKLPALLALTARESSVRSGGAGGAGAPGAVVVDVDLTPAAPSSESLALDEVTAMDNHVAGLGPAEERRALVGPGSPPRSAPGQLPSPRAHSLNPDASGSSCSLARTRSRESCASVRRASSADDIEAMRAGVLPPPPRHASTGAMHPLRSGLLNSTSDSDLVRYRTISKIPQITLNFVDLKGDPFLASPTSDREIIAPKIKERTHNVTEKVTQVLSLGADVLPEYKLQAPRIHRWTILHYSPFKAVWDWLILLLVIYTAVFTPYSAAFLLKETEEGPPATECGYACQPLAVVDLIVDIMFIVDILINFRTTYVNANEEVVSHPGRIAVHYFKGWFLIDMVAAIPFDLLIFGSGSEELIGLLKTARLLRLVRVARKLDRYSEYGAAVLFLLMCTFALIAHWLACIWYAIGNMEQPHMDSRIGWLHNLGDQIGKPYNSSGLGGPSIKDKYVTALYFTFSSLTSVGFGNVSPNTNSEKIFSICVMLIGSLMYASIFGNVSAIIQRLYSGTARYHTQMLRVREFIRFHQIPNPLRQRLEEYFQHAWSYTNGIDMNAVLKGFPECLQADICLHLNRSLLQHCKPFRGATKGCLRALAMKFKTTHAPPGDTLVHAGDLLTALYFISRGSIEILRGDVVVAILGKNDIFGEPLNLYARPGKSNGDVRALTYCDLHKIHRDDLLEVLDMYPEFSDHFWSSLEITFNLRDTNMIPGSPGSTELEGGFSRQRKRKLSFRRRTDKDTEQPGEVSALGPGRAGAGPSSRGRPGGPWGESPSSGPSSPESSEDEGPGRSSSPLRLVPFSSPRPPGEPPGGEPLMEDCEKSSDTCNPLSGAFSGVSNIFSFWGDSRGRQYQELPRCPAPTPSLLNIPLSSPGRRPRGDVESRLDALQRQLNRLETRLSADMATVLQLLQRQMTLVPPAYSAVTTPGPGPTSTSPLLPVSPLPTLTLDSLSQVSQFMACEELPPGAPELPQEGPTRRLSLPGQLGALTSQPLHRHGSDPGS
D(2) dopamine receptor, sequence (P14416 whole entry): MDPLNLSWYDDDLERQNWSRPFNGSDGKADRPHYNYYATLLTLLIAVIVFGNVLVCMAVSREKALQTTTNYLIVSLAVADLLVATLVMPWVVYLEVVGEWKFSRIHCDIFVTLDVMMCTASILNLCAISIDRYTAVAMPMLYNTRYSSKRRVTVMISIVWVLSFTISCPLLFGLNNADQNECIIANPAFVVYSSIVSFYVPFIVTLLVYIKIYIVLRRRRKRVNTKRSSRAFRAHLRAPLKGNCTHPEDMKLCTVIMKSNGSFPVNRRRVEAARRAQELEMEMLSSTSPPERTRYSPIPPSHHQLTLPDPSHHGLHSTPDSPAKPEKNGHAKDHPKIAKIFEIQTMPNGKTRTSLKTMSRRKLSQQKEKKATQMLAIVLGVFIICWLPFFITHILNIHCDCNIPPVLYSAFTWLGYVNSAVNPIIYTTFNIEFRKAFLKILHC
5-hydroxytryptamine receptor 2A, sequence (P28223 whole entry): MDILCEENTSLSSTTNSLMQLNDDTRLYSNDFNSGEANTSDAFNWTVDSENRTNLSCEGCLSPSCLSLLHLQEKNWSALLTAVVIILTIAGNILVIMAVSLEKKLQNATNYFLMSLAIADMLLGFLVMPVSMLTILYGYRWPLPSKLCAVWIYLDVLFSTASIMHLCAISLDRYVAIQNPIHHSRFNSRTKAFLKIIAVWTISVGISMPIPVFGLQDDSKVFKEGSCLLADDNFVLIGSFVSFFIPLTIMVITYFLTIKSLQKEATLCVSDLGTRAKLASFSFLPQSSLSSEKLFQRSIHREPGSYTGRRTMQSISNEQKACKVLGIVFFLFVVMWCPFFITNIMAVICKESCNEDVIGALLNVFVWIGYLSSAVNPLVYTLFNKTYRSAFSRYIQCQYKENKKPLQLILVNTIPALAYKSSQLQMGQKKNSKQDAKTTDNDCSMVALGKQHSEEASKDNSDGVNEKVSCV
5-hydroxytryptamine receptor 7, sequence (P34969 whole entry): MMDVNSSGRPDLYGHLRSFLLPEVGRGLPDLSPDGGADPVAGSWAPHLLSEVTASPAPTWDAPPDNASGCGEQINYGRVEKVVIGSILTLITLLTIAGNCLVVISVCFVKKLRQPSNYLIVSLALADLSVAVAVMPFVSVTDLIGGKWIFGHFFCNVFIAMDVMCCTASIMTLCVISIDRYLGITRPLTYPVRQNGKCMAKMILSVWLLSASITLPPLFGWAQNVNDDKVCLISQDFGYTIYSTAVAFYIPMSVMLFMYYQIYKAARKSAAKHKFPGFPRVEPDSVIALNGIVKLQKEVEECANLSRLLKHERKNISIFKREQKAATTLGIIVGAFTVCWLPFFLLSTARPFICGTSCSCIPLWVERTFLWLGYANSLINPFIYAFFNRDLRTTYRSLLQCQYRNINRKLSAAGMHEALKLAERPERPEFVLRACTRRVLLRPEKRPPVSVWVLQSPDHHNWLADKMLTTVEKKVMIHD
5-hydroxytryptamine receptor 6, sequence (P50406 whole entry): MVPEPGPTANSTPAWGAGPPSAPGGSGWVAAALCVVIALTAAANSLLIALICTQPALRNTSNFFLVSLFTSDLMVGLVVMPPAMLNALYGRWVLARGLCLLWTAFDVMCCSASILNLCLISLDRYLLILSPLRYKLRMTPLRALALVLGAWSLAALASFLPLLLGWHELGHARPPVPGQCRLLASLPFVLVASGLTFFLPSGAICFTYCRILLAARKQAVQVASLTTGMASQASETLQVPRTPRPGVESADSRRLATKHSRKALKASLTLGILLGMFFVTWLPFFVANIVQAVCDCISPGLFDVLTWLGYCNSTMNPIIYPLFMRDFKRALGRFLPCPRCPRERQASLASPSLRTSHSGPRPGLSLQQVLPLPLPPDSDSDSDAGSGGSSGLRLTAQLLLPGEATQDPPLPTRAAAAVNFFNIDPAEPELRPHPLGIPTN

## O=S(=O)(NCCCN1CCN(c2nsc3ccccc23)CC1)c1ccc(Cl)c(Cl)c1
[1]
  Ki: 0.02 µM
[2]
  Ki: 0.025 µM
[3]
  inhibition at 1 µM: 21%
[4]
  Ki: 0.015 µM
D(2) dopamine receptor
  Ki: 0.0078 µM

## O=S(=O)(NCCCN1CCC(c2noc3cc(F)ccc23)CC1)c1cccc2ccccc12
[1]
  Ki: 0.0005 µM
[2]
  Ki: 0.0017 µM
[5]
  inhibition: -9%
[3]
  inhibition at 1 µM: 27%
[4]
  Ki: 0.083 µM
D(2) dopamine receptor
  Ki: 0.004 µM

## O=S(=O)(NCCN1CCC(c2noc3cc(F)ccc23)CC1)c1ccc2ccccc2c1
[1]
  Ki: 0.0004 µM
[2]
  Ki: 0.0018 µM
[5]
  inhibition: -2%
[3]
  inhibition at 1 µM: 21%
[4]
  Ki: 0.133 µM
D(2) dopamine receptor
  Ki: 0.0052 µM

## O=S(=O)(NCCCCN1CCN(c2nsc3ccccc23)CC1)c1cccc2scnc12
[1]
  Ki: 0.0034 µM
[2]
  Ki: 0.0075 µM
[5]
  inhibition: 0%
[3]
  inhibition at 1 µM: 34%
[4]
  Ki: 0.12 µM
D(2) dopamine receptor
  Ki: 0.016 µM

## O=S(=O)(NCCCN1CCN(c2nsc3ccccc23)CC1)c1cccs1
[1]
  Ki: 0.023 µM
[2]
  Ki: 0.0091 µM
[3]
  inhibition at 1 µM: 33%
[4]
  Ki: 0.14 µM
D(2) dopamine receptor
  Ki: 0.056 µM

## O=S(=O)(NCCCCN1CCN(c2nsc3ccccc23)CC1)c1cc2ccccc2s1
[1]
  Ki: 0.0099 µM
[2]
  Ki: 0.006 µM
[5]
  inhibition: 0%
[3]
  inhibition at 1 µM: 11%
[4]
  Ki: 0.033 µM
D(2) dopamine receptor
  Ki: 0.015 µM

## Cc1cccc(S(=O)(=O)NCCCCN2CCC(c3noc4cc(F)ccc34)CC2)c1
[1]
  Ki: 0.0015 µM
[2]
  Ki: 0.0021 µM
[5]
  inhibition: 11%
[3]
  inhibition at 1 µM: 57%
[4]
  Ki: 0.14 µM
D(2) dopamine receptor
  Ki: 0.017 µM

## O=S(=O)(NCCCN1CCN(c2nsc3ccccc23)CC1)c1cccc2scnc12
[1]
  Ki: 0.002 µM
[2]
  Ki: 0.0084 µM
[5]
  inhibition: 0%
[3]
  inhibition at 1 µM: 16%
[4]
  Ki: 0.027 µM
D(2) dopamine receptor
  Ki: 0.027 µM

## O=S(=O)(NCCCCN1CCN(c2nsc3ccccc23)CC1)c1cc2ccc(Cl)cc2s1
[1]
  Ki: 0.009 µM
[2]
  Ki: 0.0065 µM
[5]
  inhibition: 2%
[3]
  inhibition at 1 µM: 5%
[4]
  Ki: 0.045 µM
D(2) dopamine receptor
  Ki: 0.045 µM

## O=S(=O)(NCCCN1CCN(c2noc3ccccc23)CC1)c1ccc2ccccc2c1
[1]
  Ki: 0.12 µM
[2]
  Ki: 0.11 µM
[5]
  inhibition: -5%
[3]
  inhibition at 1 µM: 29%
[4]
  Ki: 1.6 µM
D(2) dopamine receptor
  Ki: 7.2 µM

## O=S(=O)(NCCCN1CCN(c2nsc3ccccc23)CC1)c1cc2ccccc2s1
[1]
  Ki: 0.013 µM
[2]
  Ki: 0.011 µM
[3]
  inhibition at 1 µM: 12%
[4]
  Ki: 0.063 µM
D(2) dopamine receptor
  Ki: 0.048 µM

## Cc1c(S(=O)(=O)NCCCN2CCN(c3noc4ccccc34)CC2)sc2ccc(F)cc12
[1]
  Ki: 0.2 µM
[2]
  Ki: 1.2 µM
[3]
  inhibition at 1 µM: 15%
[4]
  Ki: > 10 µM
D(2) dopamine receptor
  Ki: > 10 µM

## O=S(=O)(NCCCN1CCC(c2noc3cc(F)ccc23)CC1)c1ccc(OC(F)(F)F)cc1
[1]
  Ki: 0.0088 µM
[2]
  Ki: 0.0038 µM
[3]
  inhibition at 1 µM: 87%
[4]
  Ki: 0.035 µM
D(2) dopamine receptor
  Ki: 0.033 µM

## O=S(=O)(NCCCCN1CCC(c2noc3cc(F)ccc23)CC1)c1csc2ccccc12
[1]
  Ki: 0.0043 µM
[2]
  Ki: 0.0057 µM
[5]
  inhibition: 5%
[3]
  inhibition at 1 µM: 46%
[4]
  Ki: 0.013 µM
D(2) dopamine receptor
  Ki: 0.022 µM

## O=S(=O)(NCCCN1CCC(c2noc3cc(F)ccc23)CC1)c1cc2ccc(Cl)cc2s1
[1]
  Ki: 0.034 µM
[2]
  Ki: 0.0026 µM
[5]
  inhibition: -8%
[3]
  inhibition at 1 µM: 20%
[4]
  Ki: 0.044 µM
D(2) dopamine receptor
  Ki: 0.027 µM

## Cc1c(S(=O)(=O)NCCCN2CCN(c3nsc4ccccc34)CC2)sc2ccc(F)cc12
[1]
  Ki: 0.025 µM
[2]
  Ki: 0.014 µM
[5]
  inhibition: -8%
[3]
  inhibition at 1 µM: 3%
[4]
  Ki: 0.12 µM
D(2) dopamine receptor
  Ki: 0.0083 µM

## Cc1cccc(S(=O)(=O)NCCCCN2CCN(c3nsc4ccccc34)CC2)c1
[1]
  Ki: 0.0016 µM
[2]
  Ki: 0.0004 µM
[5]
  inhibition: -4%
[3]
  inhibition at 1 µM: 17%
[4]
  Ki: 0.1 µM
D(2) dopamine receptor
  Ki: 0.0087 µM

## O=S(=O)(NCCCCN1CCC(c2noc3cc(F)ccc23)CC1)c1ccc(OC(F)(F)F)cc1
[1]
  Ki: 0.015 µM
[2]
  Ki: 0.0036 µM
[5]
  inhibition: -6%
[3]
  inhibition at 1 µM: 73%
[4]
  Ki: 0.023 µM
D(2) dopamine receptor
  Ki: 0.064 µM

## Cc1cccc(S(=O)(=O)NCCN2CCN(c3nsc4ccccc34)CC2)c1
[1]
  Ki: 0.0038 µM
[2]
  Ki: 0.0088 µM
[3]
  inhibition at 1 µM: 4%
[4]
  Ki: 0.43 µM
D(2) dopamine receptor
  Ki: 0.043 µM

## O=S(=O)(NCCCCN1CCC(c2noc3cc(F)ccc23)CC1)c1cccc2scnc12
[1]
  Ki: 0.013 µM
[2]
  Ki: 0.0085 µM
[3]
  inhibition at 1 µM: 69%
[4]
  Ki: 0.07 µM
D(2) dopamine receptor
  Ki: 0.025 µM

## O=S(=O)(NCCCCN1CCN(c2noc3ccccc23)CC1)c1ccc2cc(Cl)ccc2c1
[1]
  Ki: 0.0067 µM
[2]
  Ki: 0.0077 µM
[3]
  inhibition at 1 µM: 9%
[4]
  Ki: 0.018 µM
D(2) dopamine receptor
  Ki: 0.051 µM

## O=S(=O)(NCCCN1CCN(c2nsc3ccccc23)CC1)c1cc2ccc(Cl)cc2s1
[1]
  Ki: 0.054 µM
[2]
  Ki: 0.0095 µM
[5]
  inhibition: -6%
[3]
  inhibition at 1 µM: 0%
[4]
  Ki: 0.11 µM

## O=S(=O)(NCCCCN1CCN(c2noc3ccccc23)CC1)c1ccc(Cl)c(Cl)c1
[1]
  Ki: 0.0007 µM
[2]
  Ki: 0.01 µM
[3]
  inhibition at 1 µM: 24%
[4]
  Ki: 0.029 µM
D(2) dopamine receptor
  Ki: 0.057 µM

## O=S(=O)(NCCCCN1CCN(c2nsc3ccccc23)CC1)c1ccc(OC(F)(F)F)cc1
[1]
  Ki: 0.019 µM
[2]
  Ki: 0.0022 µM
[3]
  inhibition at 1 µM: 20%
[4]
  Ki: 0.047 µM
D(2) dopamine receptor
  Ki: 0.048 µM

## O=S(=O)(NCCCCN1CCN(c2noc3ccccc23)CC1)c1ccc(OC(F)(F)F)cc1
[1]
  Ki: 0.27 µM
[2]
  Ki: 0.21 µM
[3]
  inhibition at 1 µM: 24%
[4]
  Ki: 4.8 µM
D(2) dopamine receptor
  Ki: 0.4 µM

## O=S(=O)(NCCCN1CCN(c2nsc3ccccc23)CC1)c1ccc(F)c(Cl)c1
[1]
  Ki: 0.0095 µM
[2]
  Ki: 0.014 µM
[3]
  inhibition at 1 µM: 36%
[4]
  Ki: 0.0051 µM
D(2) dopamine receptor
  Ki: 0.037 µM

## O=S(=O)(NCCCCN1CCN(c2nsc3ccccc23)CC1)c1ccc2cc(Cl)ccc2c1
[1]
  Ki: 0.033 µM
[2]
  Ki: 0.0081 µM
[3]
  inhibition at 1 µM: 12%
[4]
  Ki: 0.061 µM
D(2) dopamine receptor
  Ki: 0.049 µM

## O=S(=O)(NCCCN1CCN(c2noc3ccccc23)CC1)c1cccs1
[1]
  Ki: 0.094 µM
[2]
  Ki: 0.97 µM
[5]
  inhibition: 4%
[3]
  inhibition at 1 µM: 18%
[4]
  Ki: > 10 µM

## Cc1cccc(S(=O)(=O)NCCCN2CCN(c3noc4ccccc34)CC2)c1
[1]
  Ki: 0.01 µM
[2]
  Ki: 4.2 µM
[3]
  inhibition at 1 µM: 8%
[4]
  Ki: 1.5 µM
D(2) dopamine receptor
  Ki: 2 µM

## O=S(=O)(NCCCN1CCC(c2noc3cc(F)ccc23)CC1)c1cccs1
[1]
  Ki: 0.0009 µM
[2]
  Ki: 0.0051 µM
[3]
  inhibition at 1 µM: 53%
[4]
  Ki: 0.066 µM
D(2) dopamine receptor
  Ki: 0.0087 µM

## Cc1cccc(S(=O)(=O)NCCCN2CCN(c3nsc4ccccc34)CC2)c1
[1]
  Ki: 0.0017 µM
[2]
  Ki: 0.0013 µM
[3]
  inhibition at 1 µM: 14%
[4]
  Ki: 0.022 µM
D(2) dopamine receptor
  Ki: 0.013 µM

## O=S(=O)(NCCCCN1CCN(c2noc3ccccc23)CC1)c1cccc2scnc12
[1]
  Ki: 0.057 µM
[2]
  Ki: 6.1 µM
[3]
  inhibition at 1 µM: 26%
[4]
  Ki: > 10 µM
D(2) dopamine receptor
  Ki: 0.17 µM

## O=S(=O)(NCCN1CCN(c2nsc3ccccc23)CC1)c1ccc2ccccc2c1
[1]
  Ki: 0.0015 µM
[2]
  Ki: 0.0009 µM
[3]
  inhibition at 1 µM: 0%
[4]
  Ki: 0.68 µM
D(2) dopamine receptor
  Ki: 0.018 µM

## O=S(=O)(NCCCN1CCN(c2nsc3ccccc23)CC1)c1ccc(OC(F)(F)F)cc1
[1]
  Ki: 0.029 µM
[2]
  Ki: 0.0095 µM
[3]
  inhibition at 1 µM: 50%
[4]
  Ki: 0.056 µM
D(2) dopamine receptor
  Ki: 0.027 µM
